Patent publication US7888319B2, “Compositions and methods for promoting wound healing and tissue regeneration” (MUSC Foundation for Research Development, priority 2004, dated 2011)

Tested on: WB-F344 cells
Experiment: Scratch injury of WB-F344 cell lines stably expressing ACT-peptide-encoding polynucleotide
Assay type: cell-based, rat
Settings: stable expression with GFP, 24 hours after scratch, vs GFP-only cell line
Excerpt: WB-F344 cells are a transformed rat epithelial cell line derived by treatment of isolated rat liver cells with a cancer-causing agent (Tsao et al., 1984; Hayashi et al., 1997; Hayashi et al., 1998; Hayashi et al., 2001). WB-F344 cells were transfected with a cDNA expression plasmid construct and selected under antibiotic using standard protocols to generate cell lines that stably expressed an ACT-peptide-encoding-polynucleotide (SEQ ID NO:6) operably linked to a promoter sequence or a green fluorescent protein (GFP) polynucleotide operably linked to a promoter sequence as a control. The polynucleotide encoding the ACT peptide also encoded GFP. As such, expression of the ACT peptide could be assayed by standard GFP fluorescence optics on a light microscope. (a) and (b) show high magnification images of GFP fluorescence in WB-F344 cell lines expressing GFP plus the carboxy terminus ACT peptide sequence (a) or GFP alone (b). Near confluent monolayers of the WB-F344 cell lines were “scratch injured” and allowed to “heal” for 24 hours. […]
WB-F344 cells are a transformed rat epithelial cell line derived by treatment of isolated rat liver cells with a cancer-causing agent (Tsao et al., 1984; Hayashi et al., 1997; Hayashi et al., 1998; Hayashi et al., 2001). […] As such, expression of the ACT peptide could be assayed by standard GFP fluorescence optics on a light microscope. […]

aga cct cgg cct gat gac ctg gag att (DNA AGACCTCGGCCTGATGACCTGGAGATT; expressed or natural sequence) [ACT-peptide-encoding-polynucleotide, polynucleotide encoding ACT peptide plus GFP, operably linked to a promoter, stably expressed in WB-F344 cells]
repopulation of the scratch injury: inhibited repopulation of the scratch injury
